Laboratory results as given in ChEMBL document CHEMBL1201862, “PubChem BioAssay data set” (2004).
Calls of active or inactive are those of the source.

Assays:
[1] = target: Procathepsin L (Homo sapiens, UniProt P07711); test: CTSL1 protease inhibition – biochemical, QFRET, 1536-well, counter-screen for M1/M17 aminopeptidase inhibitor project, dose response (AID 2214)
[2] = target: T1, Leucine aminopeptidase (Plasmodium falciparum 3D7, UniProt Q8IL11); test: P. falciparum M17LAP inhibitors, primary screen, biochemical, fluorogenic H-Leu-NHMec substrate, 1536-well (AID 1619); format: functional
T1 sequence (Q8IL11 whole entry): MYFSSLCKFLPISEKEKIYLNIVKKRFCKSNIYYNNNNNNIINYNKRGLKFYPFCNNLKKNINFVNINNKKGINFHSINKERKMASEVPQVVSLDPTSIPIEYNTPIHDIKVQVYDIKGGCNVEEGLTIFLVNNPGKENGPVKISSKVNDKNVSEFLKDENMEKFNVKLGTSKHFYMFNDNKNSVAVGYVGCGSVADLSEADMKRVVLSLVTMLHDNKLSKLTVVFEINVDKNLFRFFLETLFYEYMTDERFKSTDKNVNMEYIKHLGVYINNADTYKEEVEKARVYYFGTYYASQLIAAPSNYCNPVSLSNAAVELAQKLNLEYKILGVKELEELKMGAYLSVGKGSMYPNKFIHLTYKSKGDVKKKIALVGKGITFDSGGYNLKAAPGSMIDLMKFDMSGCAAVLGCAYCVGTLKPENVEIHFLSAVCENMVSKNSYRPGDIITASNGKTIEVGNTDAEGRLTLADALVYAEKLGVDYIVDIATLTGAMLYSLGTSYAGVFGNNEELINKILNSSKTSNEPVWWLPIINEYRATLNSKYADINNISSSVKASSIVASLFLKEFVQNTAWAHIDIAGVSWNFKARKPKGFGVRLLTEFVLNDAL

[3] = target: T2, Aspartyl aminopeptidase (Plasmodium falciparum 3D7, UniProt Q8I2J3); test: Counterscreen for inhibitors of M1 and M17 aminopeptidases: QFRET-based biochemical high throughput dose response assay for inhibitors of the Plasmodium falciparum M18 Aspartyl Aminopeptidase (PFM18AAP). [Related PubChem assays: 1619 (Screening assay (M17LAP inhibitors).), 1445 (Screening assay (M1AAP inhibitors).)]
T2 sequence (Q8I2J3 whole entry): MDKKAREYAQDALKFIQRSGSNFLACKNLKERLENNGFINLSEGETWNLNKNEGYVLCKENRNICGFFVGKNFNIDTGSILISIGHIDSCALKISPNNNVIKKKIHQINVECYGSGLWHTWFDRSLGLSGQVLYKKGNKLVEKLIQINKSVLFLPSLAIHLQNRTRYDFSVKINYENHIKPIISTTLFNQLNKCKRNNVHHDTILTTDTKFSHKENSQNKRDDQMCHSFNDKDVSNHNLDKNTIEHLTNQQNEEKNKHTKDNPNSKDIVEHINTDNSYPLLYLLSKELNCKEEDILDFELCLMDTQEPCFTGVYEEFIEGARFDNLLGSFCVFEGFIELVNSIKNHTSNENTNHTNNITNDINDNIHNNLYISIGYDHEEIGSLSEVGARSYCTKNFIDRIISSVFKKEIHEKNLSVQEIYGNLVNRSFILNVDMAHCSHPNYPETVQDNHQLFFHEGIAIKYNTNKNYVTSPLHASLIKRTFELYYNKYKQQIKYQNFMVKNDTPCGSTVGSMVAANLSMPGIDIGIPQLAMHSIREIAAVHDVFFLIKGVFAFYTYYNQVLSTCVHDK

[4] = system: Vero; test: mammalian cell viability reduction – secondary assay, cytotoxicity control for West Nile virus antiviral project, dose response (AID 1650); format: functional; details: Chlorocebus sabaeus
[5] = system: HeLa; test: viability loss in HeLa cells – cell-based, ATP luminescence, cherry-pick samples, cytotoxicity control, dose response (AID 687004); format: functional; details: Homo sapiens
[6] = P. falciparum Dd2 growth inhibitors, dose response, SYBR Green, cherry-picked samples (AID 1159567); format: functional, cell-based
[7] = inhibition of ADAM10 peptide cleavage – biochemical, FRET peptide substrate, recombinant human ADAM10, selectivity assay for ADAM17 exosite inhibitor project, dose response (AID 743259);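 also: ADAM10 enzyme cleaving a FRET peptide substrate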
[8] = target: Disintegrin and metalloproteinase domain-containing protein 17 (Homo sapiens, UniProt P78536); test: exosite inhibitors of ADAM17, dose response, biochemical (AID 743260)
Chain of Disintegrin and metalloproteinase domain-containing protein 17 (P78536 whole entry, the tested form may be a part): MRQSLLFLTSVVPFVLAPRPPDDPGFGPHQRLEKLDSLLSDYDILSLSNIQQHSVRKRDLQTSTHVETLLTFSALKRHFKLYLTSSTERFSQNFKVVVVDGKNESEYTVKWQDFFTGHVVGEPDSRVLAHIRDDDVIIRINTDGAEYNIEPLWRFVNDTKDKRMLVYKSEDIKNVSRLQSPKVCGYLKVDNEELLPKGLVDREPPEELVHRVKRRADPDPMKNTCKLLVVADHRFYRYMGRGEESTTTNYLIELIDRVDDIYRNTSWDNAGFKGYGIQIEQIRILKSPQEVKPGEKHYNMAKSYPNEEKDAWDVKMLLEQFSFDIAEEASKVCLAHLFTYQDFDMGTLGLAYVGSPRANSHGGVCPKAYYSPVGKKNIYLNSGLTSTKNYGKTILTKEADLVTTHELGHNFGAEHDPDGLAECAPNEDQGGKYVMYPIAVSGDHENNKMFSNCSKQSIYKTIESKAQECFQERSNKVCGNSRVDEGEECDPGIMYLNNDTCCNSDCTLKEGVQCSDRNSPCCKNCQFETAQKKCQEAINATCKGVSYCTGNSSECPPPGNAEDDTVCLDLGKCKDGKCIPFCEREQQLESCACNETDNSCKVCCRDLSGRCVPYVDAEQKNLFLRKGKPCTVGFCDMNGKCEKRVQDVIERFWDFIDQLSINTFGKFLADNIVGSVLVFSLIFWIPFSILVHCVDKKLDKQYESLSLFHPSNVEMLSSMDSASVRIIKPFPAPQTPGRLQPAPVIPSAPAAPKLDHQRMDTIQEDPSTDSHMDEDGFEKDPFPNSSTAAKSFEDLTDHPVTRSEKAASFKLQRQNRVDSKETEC

[9] = target: T3, Streptokinase A (Streptococcus pyogenes serotype M1, UniProt P10520); test: viability-normalized secreted streptokinase activity reduction – plasminogen activation absorbance, OD405, dose response (AID 1914); format: functional, Streptococcus pyogenes M1 GAS;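 also: secreted streptokinase activity via plasminogen activation per viability signal from cell pellet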
T3 sequence (P10520 whole entry): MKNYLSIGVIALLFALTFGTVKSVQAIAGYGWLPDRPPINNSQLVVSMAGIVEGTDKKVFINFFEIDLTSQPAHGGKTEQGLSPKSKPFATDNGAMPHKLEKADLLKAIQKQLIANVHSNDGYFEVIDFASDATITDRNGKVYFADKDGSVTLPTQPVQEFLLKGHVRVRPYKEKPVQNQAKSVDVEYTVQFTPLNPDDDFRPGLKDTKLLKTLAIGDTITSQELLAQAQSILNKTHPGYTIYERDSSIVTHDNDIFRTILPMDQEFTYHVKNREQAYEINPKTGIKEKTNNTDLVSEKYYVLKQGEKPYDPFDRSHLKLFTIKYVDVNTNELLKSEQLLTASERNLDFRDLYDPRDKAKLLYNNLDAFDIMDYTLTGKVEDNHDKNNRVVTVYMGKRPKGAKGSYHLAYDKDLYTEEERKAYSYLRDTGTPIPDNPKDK

[10] = system: Streptococcus; test: GAS UMAA2166 growth inhibition – luminescence, BacTiterGlo, counter-screen for streptokinase expression inhibitor project, dose response (AID 1915); format: functional, organism-based;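 also: potency for reduction of bacterial viability or growth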
[11] = system: Streptococcus sp. 'group A'; test: Streptococcus pyogenes SK(-)GAS viability under kanamycin – luminescence, BacTiterGlo, confirmation, counter-screen for streptokinase expression inhibitor project, dose response (AID 1900); format: functional, organism-based
[12] = cytotoxicity in MITF-independent A375 cells – cell-based, CellTiter-Glo luminescence, dry powder, set 4, counter-screen for MITF inhibitor project, dose response (AID 624364); format: functional; details: A-375;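 also: A375 melanoma cells are MITF independent so this is a counter screen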
[13] = viability loss in MITF-independent A375 cells – cell-based, CellTiter-Glo luminescence, dry powder, set 2, counter-screen for MITF inhibitor project, dose response (AID 624489); format: functional; details: A-375;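 also: actives are compounds lowering A375 viability meaning general cytotoxicity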

Chain of Procathepsin L (P07711 whole entry): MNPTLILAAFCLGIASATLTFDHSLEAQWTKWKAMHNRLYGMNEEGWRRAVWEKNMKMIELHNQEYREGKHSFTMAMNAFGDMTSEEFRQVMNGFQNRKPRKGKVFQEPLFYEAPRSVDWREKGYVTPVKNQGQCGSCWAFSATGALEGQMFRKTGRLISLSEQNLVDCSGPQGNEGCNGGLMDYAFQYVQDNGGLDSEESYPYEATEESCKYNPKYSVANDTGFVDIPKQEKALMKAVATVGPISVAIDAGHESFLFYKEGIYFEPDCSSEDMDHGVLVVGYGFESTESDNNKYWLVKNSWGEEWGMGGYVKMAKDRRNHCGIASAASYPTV

With `CCc1ccc(Nc2nnc(SC3CCOC3=O)s2)cc1` (stereo unspecified) the IC50 [1] was > 59.6 µM (not active), the IC50 [2] was 2.64 µM (active) and the IC50 [3] was > 73.5 µM (not active).
With `O=C1COc2ccc(C(=O)CSc3nc4ccccc4c(=O)n3-c3ccc(Cl)c(Cl)c3)cc2N1` the CC50 [4] was 16.6 µM (active).
For `C[C@@H]1CN([C@@H](C)CO)C(=O)c2cc(NC(=O)Nc3ccccc3)ccc2O[C@@H]1CN(C)C(=O)Nc1cccc2ccccc12`, the AC50 [5] was > 52 µM (inactive) and the AC50 [6] was 8.14 µM (active).
With `COC(=O)c1c(-c2ccco2)csc1NC(=O)C1CC=CCC1C(=O)O` (stereo unspecified) the IC50 [1] was > 59.6 µM (not active), the IC50 [2] was 1.39 µM (active) and the IC50 [3] was > 73.5 µM (not active).
In the case of `COC(=O)C1=C(c2ccc(F)cc2OCc2ccccc2)C[C@@H]2CC[C@H]1N2C(=O)NCc1cccc(C(F)(F)F)c1`, the IC50 [7] is reported as > 69.5 µM (inactive) and the IC50 [8] is reported as > 69.5 µM (inactive).
In the case of `O=C(CCN1C(=O)/C(=C/c2ccc(F)cc2)SC1=S)N[C@@H](CO)Cc1ccccc1`, the CC50 [4] is reported as 49.9 µM (active).
With `COc1cc(C(=O)Oc2ccccc2N)cc(OC)c1OC` the AC50 [5] was > 52 µM (inactive).
For `COc1ccc(NC(S)=Nc2nc(CC(=O)Nc3ccccc3OC)cs2)cc1`, the EC50 [9] was > 150 µM (not active), the EC50 [10] was 17.3 µM (active) and the EC50 [11] was 6.09 µM (active). For the same compound, the IC50 [7] was > 2.58 µM (active) and the IC50 [8] was > 69.5 µM (inactive).
With `COc1ccc(C2=C(NC(=O)c3cccc(OC)c3)C(=O)c3ccccc3C2=O)cc1` the AC50 [12] was 29.5 µM (active) and the AC50 [13] was 13.6 µM (active).
For `CC1CCCCN1C(=O)CSc1nc(C2CC2)nc2c1cnn2-c1ccccc1` (stereo unspecified), the AC50 [5] was > 52 µM (inactive).
